In US20050197372A1 (priority 2002, published 2005):

Legend:
[1] = tested on: human platelets (platelet-rich plasma); assay: Platelet-rich plasma aggregation induced by 5 μM ADP; format: cell-based; details: for Platelet rich plasma aggregation induced by 5 μM ADP: 60 minutes at 37° C., baseline 75 ± 8
Description: (§1) None of them received aspirin or any other anti-platelet agents. All subjects underwent blood sampling after at least 30 minutes of rest and 2 or more hours of fasting. Blood was drawn between 8 and 10 a.m. in order to avoid any diurnal influence and sampled from an antecubital vein using a 21-gauge butterfly needle containing 3.8% sodium citrate (1:9 volume) after having discarded the first 1.5 ml of free running blood. Eleven Vacutainer tubes (4.5 ml) were collected for a total of 49 ml of whole blood-citrate mixture from each study participant. One tube was kept as an internal control and was incubated with buffer solution. […] To avoid possible observer bias, blood samples were coded and blinded. Sampling procedures, and platelet studies were performed by individuals unaware of the protocol.
(§2) The citrate and whole blood mixture were centrifuged at 1200 g for 5 minutes in order to obtain platelet-rich plasma (PRP) which was kept at room temperature for use within 1 hour. Platelet counts were determined for each PRP sample with a Coulter Counter ZM (Coulter Co., Hialeah, Fla.). Platelet numbers were adjusted to 3.50×10 ^8/ml with homologous platelet-poor plasma. Platelet aggregation (PA) was induced by 5 μM ADP, and 5 μM epinephrine. All agonists were obtained from Chronolog Corporation (Havertown, Pa.). Aggregation studies were performed using a 4 channel Chronolog Lumi-Aggregometer (model 560-Ca). Aggregation was expressed as the maximum percentage of light transmittance change (% max) from the baseline at the end of the recording time, using platelet-poor plasma as a reference. Aggregation curves were recorded for 6 minutes and analyzed according to internationally established standards. Ruggeri Z M, Semin Hemat 1994; 31: 229-239.

[2] = tested on: human platelets (platelet-rich plasma); assay: Platelet-rich plasma aggregation induced by 5 μM epinephrine; format: cell-based; details: for Platelet rich plasma platelet aggregation induced by 5 μM epinephrine: 60 minutes at 37° C., baseline 78 ± 10
Description: as §1, §2

[3] = tested on: platelets (agglutination with fibrinogen-coated beads); assay: Ultegra rapid platelet-function assay (RPFA-ASA); format: cell-based, human; details: baseline 159 ± 27
Description: as §1
A rapid platelet-function assay cartridge test (RPFA-ASA, Ultegra® Accumetrics, Inc., San Diego, Calif., USA), using polystyrene beads coated cartridges with lyophilized human fibrinogen-coated microparticles, and propyl gallat served as an agonist. The whole blood citrate mixture was added to the cartridge, and agglutination between platelets and coated beads was recorded. The data mirrored turbidometric platelet aggregation and reflected the degree of platelet prostaglandin blockade. Smith J W, et al., Circulation 1999; 99: 620-625. Ultegra® assays were performed in duplicate. An electronic quality control test was performed on each instrument every day of use prior to performing any subject samples.

[4] = tested on: glycoprotein Ib (GPIb, CD42b); assay: Whole blood flow cytometry, GP Ib expression; format: cell-based, human; details: for Expression of glycoprotein Ib (GPIb, CD42b): baseline 246.4 ± 26.7
Description: as §1
(§3) The expression of platelet receptors was determined by using the following monoclonal antibodies: CD31 (platelet endothelial cell adhesion molecule (PECAM-1), CD41 (glycoprotein [GP] IIb/IIIa, (IIb (3), CD42b (GP Ib), CD 51/CD61 ((v (3, or vitronectin receptor), CD62p (P-selectin), CD107a (lysosome associated membrane protein-1; LAMP-1), CD 107b (LAMP-2), CD151 (platelet/endothelial tetraspan antigen-3; PETA-3), and PAC-1 for fibrinogen-platelet (PharMingen, San Diego, Calif.). Platelet-leukocyte interactions were assessed by using dual antibodies for a pan-platelet marker (CD 151), together with CD14, a monocyte/macrophage marker. The blood-citrate mixture (50 μl) was diluted with 450 μl Tris buffered saline (TBS) (10 mmol/L Tris, 0.15 mol/L sodium chloride) and mixed by gently inverting an Eppendorf tube 2 times. Five μl of the corresponding antibodies were then added to each solution and the samples were incubated for 30 minutes. After incubation, 400 μl of 2% buffered paraformaldehyde was added for fixation. The samples were analyzed by a Becton Dickinson FACScan flow cytometer set up to measure fluorescent light scatter, as described in Gurbel P A, et al., J Am Coll Cardiol. 1998; 31: 1466-1473. The data were collected in list mode files and then analyzed. P selectin was expressed as percent positive cells as described in Gurbel P A, et al, Am Heart J 2000; 139: 320-328. Other antigens were expressed as log mean fluorescence intensity.

[5] = tested on: platelet vitronectin receptor (CD51/CD61); assay: Whole blood flow cytometry, vitronectin receptor expression; format: cell-based, human; details: for Expression of platelet vitronectin receptor (CD51/CD61): baseline 11.2 ± 4.6
Description: as §1, §3

[6] = tested on: lysosome associated membrane protein -1 (LAMP-1, CD107a); assay: Whole blood flow cytometry, LAMP-1 expression; format: cell-based, human; details: baseline 8.7 ± 3.2
Description: as §1, §3

[7] = tested on: Glycoprotein IIb/IIIa activity (fibrinogen binding, PAC-1); assay: Whole blood flow cytometry, GP IIb/IIIa activity (PAC-1); format: cell-based, human; details: for Glycoprotein IIb/IIIa activity (fibrinogen binding, PAC-1): baseline 10.3 ± 2.8
Description: as §1, §3

[8] = patients undergoing valsartan therapy; cited from earlier work

Compound: CC(O)CCC(=O)N(Cc1ccc(-c2ccccc2-c2nnn[nH]2)cc1)[C@H](C(=O)O)C(C)C (stereo partly drawn) [Valeryl 4-hydroxy valsartan, (S)-2{(4-Hydroxy-pentanoyl)-[2′-(1H-tetrazol-5-yl)-biphenyl-4-ylmethyl]amino}-3-methyl-butyric Acid]
- Effect on ADP-induced platelet aggregation (in words) ([1]; PRP, 5 μM ADP, preincubation with escalating doses 10 nM to 100 μM): did not have any effect
- Platelet rich plasma aggregation induced by 5 μM ADP ([1]; drug 10 nM): 75 ± 6%
- Platelet rich plasma aggregation induced by 5 μM ADP ([1]; drug 100 nM): 76 ± 8%
- Platelet rich plasma aggregation induced by 5 μM ADP ([1]; drug 1 μM): 77 ± 9%
- Platelet rich plasma aggregation induced by 5 μM ADP ([1]; drug 10 μM): 76 ± 8%
- Platelet rich plasma aggregation induced by 5 μM ADP ([1]; drug 100 μM): 77 ± 9%
- Effect on epinephrine-induced platelet aggregation (in words) ([2]; PRP, 5 μM epinephrine, preincubation with escalating doses 10 nM to 100 μM): inhibited epinephrine-induced aggregation in concentration 1 μM and 10 μM
- Platelet rich plasma platelet aggregation induced by 5 μM epinephrine ([2]; drug 10 nM): 77 ± 10%
- Platelet rich plasma platelet aggregation induced by 5 μM epinephrine ([2]; drug 100 nM): 76 ± 9%
- Platelet rich plasma platelet aggregation induced by 5 μM epinephrine ([2]; drug 1 μM): 54 ± 11%
- Platelet rich plasma platelet aggregation induced by 5 μM epinephrine ([2]; drug 10 μM): 56 ± 13%
- Platelet rich plasma platelet aggregation induced by 5 μM epinephrine ([2]; drug 100 μM): 52 ± 9%
- Effect on epinephrine-induced aggregation, FIG. 1 aggregation curves (in words) ([2]; one study patient, incubation with 1 μM): blocks epinephrine-induced aggregation
- Ultegra Analyzer ([3]; drug 10 nM): 177 ± 23 platelet activation units
- Ultegra Analyzer ([3]; drug 100 nM): 181 ± 31 platelet activation units
- Ultegra Analyzer ([3]; drug 1 μM): 134 ± 29 platelet activation units
- Ultegra Analyzer ([3]; drug 10 μM): 119 ± 38 platelet activation units
- Ultegra Analyzer ([3]; drug 100 μM): 168 ± 35 platelet activation units
- Expression of glycoprotein Ib (GPIb, CD42b) ([4]; drug 10 nM): 236.4 ± 18.7 log MFI
- Expression of glycoprotein Ib (GPIb, CD42b) ([4]; drug 100 nM): 267.9 ± 39.4 log MFI
- Expression of glycoprotein Ib (GPIb, CD42b) ([4]; drug 1 μM): 255.5 ± 24.8 log MFI
- Expression of glycoprotein Ib (GPIb, CD42b) ([4]; drug 10 μM): 249.7 ± 41.8 log MFI
- Expression of glycoprotein Ib (GPIb, CD42b) ([4]; drug 100 μM): 248.1 ± 19.5 log MFI
- Effect on GP Ib (CD42) (in words) ([4]; whole blood flow cytometry): not associated with any effect
- Expression of platelet vitronectin receptor (CD51/CD61) ([5]; drug 10 nM): 12.1 ± 4.2 log MFI
- Expression of platelet vitronectin receptor (CD51/CD61) ([5]; drug 100 nM): 8.5 ± 3.1 log MFI
- Expression of platelet vitronectin receptor (CD51/CD61) ([5]; drug 1 μM): 8.1 ± 3.8 log MFI
- Expression of platelet vitronectin receptor (CD51/CD61) ([5]; drug 10 μM): 7.2 ± 5.6 log MFI
- Expression of platelet vitronectin receptor (CD51/CD61) ([5]; drug 100 μM): 7.6 ± 3.3 log MFI
- Effect on expression of vitronectin receptors (in words) ([5]; whole blood flow cytometry): moderately reduced
- Expression of lysosome associated membrane protein -1 (LAMP-1, CD107a) ([6]; drug 10 nM): 10.2 ± 3.6 log MFI
- Expression of lysosome associated membrane protein -1 (LAMP-1, CD107a) ([6]; drug 100 nM): 9.0 ± 4.0 log MFI
- Expression of lysosome associated membrane protein -1 (LAMP-1, CD107a) ([6]; drug 1 μM): 6.6 ± 2.9 log MFI
- Expression of lysosome associated membrane protein -1 (LAMP-1, CD107a) ([6]; drug 10 μM): 5.8 ± 3.2 log MFI
- Expression of lysosome associated membrane protein -1 (LAMP-1, CD107a) ([6]; drug 100 μM): 8.0 ± 3.4 log MFI
- Glycoprotein IIb/IIIa activity (fibrinogen binding, PAC-1) ([7]; drug 10 nM): 11.0 ± 4.5 log MFI
- Glycoprotein IIb/IIIa activity (fibrinogen binding, PAC-1) ([7]; drug 100 nM): 9.0 ± 3.3 log MFI
- Glycoprotein IIb/IIIa activity (fibrinogen binding, PAC-1) ([7]; drug 1 μM): 6.7 ± 2.7 log MFI
- Glycoprotein IIb/IIIa activity (fibrinogen binding, PAC-1) ([7]; drug 10 μM): 7.5 ± 3.1 log MFI
- Glycoprotein IIb/IIIa activity (fibrinogen binding, PAC-1) ([7]; drug 100 μM): 9.9 ± 3.0 log MFI
- Effect on fibrinogen binding (PAC-1) (in words) ([7]; whole blood flow cytometry): slightly reduced
- Level in plasma as share of valsartan levels [8]: 10%
